Assay results published in patent publication US9499502B2, “5-substituted iminothiazines and their mono- and dioxides as BACE inhibitors, compositions, and their use” (Merck Sharp & Dohme Corp., priority 2011, dated 2016).

The compounds below were run against soluble human BACE1 catalytic domain (Homo sapiens (Human), UniProt P56817) (assay: BACE1 HTRF FRET Assay). Conditions: at 10 μM.
soluble human BACE1 catalytic domain, sequence (P56817 75-416): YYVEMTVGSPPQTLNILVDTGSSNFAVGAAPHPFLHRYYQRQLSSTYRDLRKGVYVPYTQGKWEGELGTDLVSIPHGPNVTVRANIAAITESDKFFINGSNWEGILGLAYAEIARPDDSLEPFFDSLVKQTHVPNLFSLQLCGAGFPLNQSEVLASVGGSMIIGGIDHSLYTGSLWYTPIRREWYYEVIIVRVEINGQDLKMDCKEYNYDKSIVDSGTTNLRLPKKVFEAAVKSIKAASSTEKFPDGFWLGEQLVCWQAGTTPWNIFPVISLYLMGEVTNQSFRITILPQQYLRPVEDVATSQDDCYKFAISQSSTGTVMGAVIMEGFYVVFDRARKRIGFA

BACE1 inhibition, % Inh. at 10 μM	Compound
7% Inh at 10 μM	Cc1nc2cc(CC3(C)C(=N)N[C@](C)(c4cc(F)ccc4F)CS3(=O)=O)ccc2s1 (stereo partly drawn) [Example 32-b]

Same assay, conditions: read-out: BACE1 % Inh. at 10 μM, at 10 μM

inhibition at 10 µM	Compound
48%	CN(C)CC(=O)Nc1cc(F)c(F)c([C@]2(C)CS(=O)(=O)C(C)(C)C(=N)N2)c1 [Example 9bw]

Same assay, conditions: read-out: BACE1 Ki

Ki	Compound
8020 nM	COc1cncc(-c2cc(F)c([C@]3(C)CS(=O)(=O)C(C)(CC(F)(F)F)C(=N)N3)s2)c1 (stereo partly drawn) [Example 27bn-a]
29.5 nM	C[C@]1(CC(F)(F)F)C(=N)N[C@](C)(c2sc(-c3nnc(-c4ccc(Cl)cc4)o3)cc2F)CS1(=O)=O [Example 27by-a]
297 nM	CC1(C)C(=N)N[C@](C)(c2sc(-c3ccc4ncnn4c3)cc2Cl)CS1(=O)=O [Example 27q]
41.5 nM	CC1(C)C(=N)N[C@](C)(c2cc(-c3cccc(-c4nnco4)c3)cs2)CS1(=O)=O [Example 27ah]
8830 nM	C[C@@]1(c2cccc(Br)c2)C(=N)N[C@](C)(c2ccc(F)cc2F)CS1(=O)=O [Example 32g-b]
3380 nM	CC1(C)C(=N)N[C@](C)(c2nc3ccc(-c4cccnc4)cc3s2)CS1(=O)=O [Example 29a]
106 nM	C[C@@]1(c2sc(-c3cccc(-c4nnco4)c3)cc2F)CS(=O)(=O)[C@](C)(CC(F)(F)F)C(=N)N1 [Example 27bk-b]
2030 nM	CC1(C)C(=N)N[C@](C)(c2sc(-c3csc4ccccc34)cc2Cl)CS1(=O)=O [Example 27g]
4930 nM	C[C@@]1(c2cccc(F)c2)C(=N)N[C@](C)(c2sc(-c3cccc(C#N)c3)cc2F)CS1(=O)=O [Example 27br-b]
2840 nM	COc1cccc(-c2ccc3nc([C@]4(C)CS(=O)(=O)C(C)(C)C(=N)N4)sc3c2)c1 [Example 29d]
1210 nM	COc1cccc([C@@]2(C)C(=N)N[C@](C)(c3ccc(F)cc3F)CS2(=O)=O)c1 [Example 32f-a]
128 nM	CC1(C)C(=N)N[C@](C)(c2cc(-c3cncc(-c4ncco4)c3)cs2)CS1(=O)=O [Example 27ak]
858 nM	Cc1nnc(-c2ccc(F)c(-c3cc(F)c([C@]4(C)CS(=O)(=O)C(C)(C)C(=N)N4)s3)c2)o1 [Example 27ax]
2170 nM	C[C@@]1(c2ccc(F)cc2F)CS(=O)(=O)[C@@](C)(c2cccc(OCc3ccccc3)c2)C(=N)N1 [Example 34a]
135 nM	COCC1(COC)C(=N)N[C@](C)(c2sc(-c3cccc(C#N)c3)cc2Cl)CS1(=O)=O [Example 27bt]
71.4 nM	CC1(C)C(=N)N[C@](C)(c2sc(-c3cnc(-c4ccc(F)cc4)o3)cc2Cl)CS1(=O)=O [Example 27v]
5340 nM	CC1(C)C(=N)N[C@](C)(c2sc(-c3cnn4c3CCC4)cc2Cl)CS1(=O)=O [Example 27m]
2100 nM	C[C@]1(Cc2cccc(Br)c2)C(=N)N[C@](C)(c2ccc(F)cc2F)CS1(=O)=O [Example 32j-a]

Same assay, conditions: read-out: BACE1 Ki; Ki calculated from IC50 using the Cheng-Prusoff equation

Ki	Compound
3.4 nM	COc1cnc(C(=O)Nc2ccc(F)c([C@]3(C)CS(=O)(=O)[C@@](C)(C4CCOCC4)C(=N)N3)c2)cn1 [Example 9du-a]
210 nM	CC1(C)C(=N)N[C@](C)(c2cc(NC(=O)C3(C#N)CC3)ccc2F)CS1(=O)=O [Example 9ah]
7070 nM	CC1(C)C(=N)N[C@](C)(c2cc(NC(=O)Cc3ncccn3)cc(F)c2F)CS1(=O)=O [Example 9bx]
1.6 nM	C[C@]1(CC2CCOCC2)C(=N)N[C@](C)(c2cc(NC(=O)c3ccc(Cl)cn3)ccc2F)CS1(=O)=O [Example 9cs-a]
5.4 nM	COc1cnc(C(=O)Nc2ccc(F)c([C@]3(C)CS(=O)(=O)C(C)(C)C(=N)N3)c2)c(F)c1 [Example 9d]
< 0.5 nM	CC1(C)C(=N)N[C@](C)(c2cc(NC(=O)c3ccc(C#N)cn3)ccc2F)CS1(=O)=O [Example 9b]
13.3 nM	COc1cnc(C(=O)Nc2ccc(F)c([C@]3(C)CS(=O)(=O)[C@@](C)(C4CC4)C(=N)N3)c2)cn1 [Example 9cq-a]
521 nM	CCC(=O)Nc1ccc(F)c([C@]2(C)CS(=O)(=O)C(C)(C)C(=N)N2)c1 [Example 9as]
7.5 nM	C[C@]1(CC2CC2)C(=N)N[C@](C)(c2cc(NC(=O)c3ccc(F)cn3)ccc2F)CS1(=O)=O [Example 9dh-a]
9.6 nM	CC1(C)C(=N)N[C@](C)(c2c(F)c(F)cc(NC(=O)c3ccc(Cl)cn3)c2F)CS1(=O)=O [Example 9ab]
6.2 nM	C[C@]1(CC(F)(F)F)C(=N)N[C@](C)(c2cc(NC(=O)c3ccc(F)cn3)ccc2F)CS1(=O)=O [Example 9dp-a]
359 nM	CC1(C)C(=N)N[C@](C)(c2sc(C(=O)NCc3cnoc3)cc2Cl)CS1(=O)=O [Example 22q]
4.4 nM	C[C@@]1(c2cc(NC(=O)c3ccc(Cl)cn3)ccc2F)CS(=O)(=O)[C@@](C)(c2ccccn2)C(=N)N1 [Example 9cw-a]
< 0.5 nM	CC1(C)C(=N)N[C@](C)(c2cc(NC(=O)c3ncc(Cl)cc3Cl)ccc2F)CS1(=O)=O [Example 9]
2.1 nM	C[C@]1(CC2CCOCC2)C(=N)N[C@](C)(c2cc(NC(=O)c3ccc(F)cn3)ccc2F)CS1(=O)=O [Example 9cr-a]
7 nM	COc1cnc(C(=O)Nc2ccc(F)c([C@]3(C)CS(=O)(=O)[C@@](C)(CC4CC4)C(=N)N3)c2)cn1 [Example 9dk-a]
915 nM	CC1(C)C(=N)N[C@](C)(c2cc(NC(=O)CC3CC3)ccc2F)CS1(=O)=O [Example 9ar]
1270 nM	CC1(C)C(=N)N[C@](C)(c2sc(C(=O)NCc3cccc(Cl)c3)cc2Cl)CS1(=O)=O [Example 22l]
1.9 nM	Cc1nc(C(=O)Nc2ccc(F)c([C@]3(C)CS(=O)(=O)C(C)(C)C(=N)N3)c2)no1 [Example 9g]
26 nM	Cc1cnc(C(=O)Nc2ccc(F)c([C@]3(C)CS(=O)(=O)C(C)(C)C(=N)N3)c2)cn1 [Example 9ak]
175 nM	CC1(C)C(=N)N[C@](C)(c2sc(C(=O)Nc3cccc(C(F)(F)F)n3)cc2Cl)CS1(=O)=O [Example 22]

Ki	Compound
172 nM	CC1(C)C(=N)N[C@](C)(c2cc(NC(=O)[C@H]3CCCO3)ccc2F)CS1(=O)=O [Example 9al]
1440 nM	CC(=O)Nc1ccc(F)c([C@]2(C)CS(=O)(=O)C(C)(C)C(=N)N2)c1 [Example 9an]
3.5 nM	C[C@@]1(c2cc(NC(=O)c3ccc(F)cn3)ccc2F)CS(=O)(=O)[C@@](C)(C2CCOCC2)C(=N)N1 [Example 9ds-a]
1160 nM	CC1(C)C(=N)N[C@](C)(c2sc(C(=O)NCc3cccc(F)c3)cc2Cl)CS1(=O)=O [Example 22i]
8 nM	Cc1ccc(C(=O)Nc2ccc(F)c([C@]3(C)CS(=O)(=O)C(C)(C)C(=N)N3)c2)nc1 [Example 4]
6.3 nM	CC1(C)C(=N)N[C@](C)(c2cc(NC(=O)c3ccc(F)cn3)cc(Cl)c2F)CS1(=O)=O [Example 9s]
4.4 nM	C[C@]1(CC2CC2)C(=N)N[C@](C)(c2cc(NC(=O)c3ccc(C(F)(F)F)cn3)ccc2F)CS1(=O)=O [Example 9dl-a]
47.4 nM	C[C@@]1(c2cc(NC(=O)c3ccc(F)cn3)ccc2F)CS(=O)(=O)[C@](C)(CC2CC2)C(=N)N1 [Example 9dh-b]
15.6 nM	C[C@@]1(c2cc(NC(=O)c3ccc(Cl)cn3)ccc2F)CS(=O)(=O)[C@](C)(CC2CC2)C(=N)N1 [Example 9di-b]
3130 nM	CC1(C)C(=N)N[C@](C)(c2sc(C(=O)NCc3ccncn3)cc2Cl)CS1(=O)=O [Example 22t]
9.7 nM	CC1(C)C(=N)N[C@](C)(c2cc(NC(=O)c3ccc(F)cn3)cc(F)c2F)CS1(=O)=O [Example 9k]
12.8 nM	CC1(C)C(=N)N[C@](C)(c2sc(-c3cccc(-c4cnco4)c3)cc2Cl)CS1(=O)=O [Example 27c]
44.4 nM	CC1(C)C(=N)N[C@](C)(c2sc(-c3cncc(-c4ncco4)c3)cc2Cl)CS1(=O)=O [Example 27ad]
292 nM	CC1(C)C(=N)N[C@](C)(c2sc(C(=O)NCc3ccsn3)cc2Cl)CS1(=O)=O [Example 22v]
7 nM	C[C@@]1(c2cc(NC(=O)c3ccc(F)cn3)ccc2F)CS(=O)(=O)[C@@](C)(C2CCC2)C(=N)N1 [Example 9dv-a]
1030 nM	CC1(C)C(=N)N[C@](C)(c2sc(C(=O)NCc3ccc(C#N)cc3)cc2Cl)CS1(=O)=O [Example 22m]
39 nM	CC1(C)C(=N)N[C@](C)(c2cc(NC(=O)c3cocn3)ccc2F)CS1(=O)=O [Example 9ap]
3 nM	COc1cnc(C(=O)Nc2cc(F)c(F)c([C@]3(C)CS(=O)(=O)C(C)(C)C(=N)N3)c2)c(F)c1 [Example 9o]
863 nM	CC1(C)C(=N)N[C@](C)(c2sc(C(=O)NCc3ccc(Cl)cc3)cc2Cl)CS1(=O)=O [Example 22k]
917 nM	CC1(C)C(=N)N[C@](C)(c2sc(C(=O)NCC3CCC3)cc2Cl)CS1(=O)=O [Example 22n]
5.8 nM	COc1ccc(C(=O)Nc2cc(Cl)c(F)c([C@]3(C)CS(=O)(=O)C(C)(C)C(=N)N3)c2)nc1 [Example 9u]

Same assay, conditions: read-out: BACE1 inhibition, % Inh. at 10 μM, at 10 μM

inhibition at 10 µM	Compound
45%	CC1(C)C(=N)N[C@](C)(c2c(F)c(F)cc([N+](=O)[O-])c2F)CS1(=O)=O [Entry 15]
38%	C=CC[C@]1(C)C(=N)N[C@](C)(c2cc(N)ccc2F)CS1(=O)=O [Entry 44]
37%	C[C@@]1(c2cc(N)ccc2F)CS(=O)(=O)[C@](C)(CC(F)(F)F)C(=N)N1 [Entry 36]

Same assay, conditions: read-out: BACE1 inhibition, Ki

Ki	Compound
600 nM	C[C@@]1(c2cc([N+](=O)[O-])ccc2F)CS(=O)(=O)[C@@](C)(c2cccc(C(F)(F)F)c2)C(=N)N1 [Entry 66]
1300 nM	C[C@]1(CC2CCOCC2)C(=N)N[C@](C)(c2cc(N)ccc2F)CS1(=O)=O [Entry 53]
3600 nM	CC1(C)C(=N)N[C@](C)(c2c(F)ccc(N)c2F)CS1(=O)=O [Entry 13]
1500 nM	C[C@@]1(c2sc(Br)cc2F)CS(=O)(=O)[C@@](C)(c2ccccn2)C(=N)N1 [Entry 85]
1400 nM	C[C@@]1(c2cc(N)ccc2F)CS(=O)(=O)[C@@](C)(c2cccc(C(F)(F)F)c2)C(=N)N1 [Entry 68]
500 nM	C[C@]1(CC(F)(F)F)C(=N)N[C@](C)(c2sc(Br)cc2F)CS1(=O)=O [Example 6F-3a]
600 nM	C[C@@]1(c2sc(Br)cc2F)CS(=O)(=O)[C@@](C)(c2cccc(F)c2)C(=N)N1 [Entry 87]
